We go through 21 molecules from PubChem BioAssay (NCI).

Experiment in all cases: NCI-60 cell line screen, 48 h
Experiment [1] relates to CAKI-1 renal.
Experiment [2] deals with SR leukemia.
The test system of experiment [3] is COLO 205 colon.
Experiment [4] concerns OVCAR-8 ovarian.
Experiment [5] deals with NCI-H522 lung.
The subject of experiment [6] is PC-3 prostate.
The subject of experiment [7] is SW-620 colon.
Experiment [8] has as its system HT29 colon.
The subject of experiment [9] is HL-60(TB) leukemia.
Experiment [10] concerns K-562 leukemia.

“And” between values parts separate entries of the source, which are not always exact repeats. Identical values can stand only once.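 Method: 48-hour compound exposure of cells in 96-well plates, five concentrations, linear interpolation of endpoints. GI50 marks 50% less growth. TGI marks complete inhibition of growth.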

`CCC[C@@H](O)C[C@@H]1CCC[C@H](C[C@@H](O)CC)N1C`: the TGI in [1] was more than 100 µM; in experiment [2], more than 100 µM; in experiment [3] it was more than 100 µM; in experiment [4], more than 100 µM; in experiment [5], 30.7 µM; in experiment [6], more than 100 µM. Also, the TGI in experiment [7], in experiment [8], in experiment [9] and in [10] was more than 100 µM each time.

Consider `Cc1c2cnccc2c(C)c2c1c1ccccc1n2CCCN`, for which the GI50 in [1] is 0.779 µM and 0.295 µM; in [3] it was 0.18 µM; in experiment [4] it was 0.205 µM; in experiment [5] it was 0.108 µM; in experiment [7] it was 0.035 µM; in [8], 0.0277 µM. In addition, the GI50 in experiment [9] was 0.527 µM and 0.414 µM; in experiment [10], 0.0402 µM. The TGI in experiment [1] was 1.9 µM and 1.41 µM; in experiment [2] it was 0.349 µM; in experiment [3], 0.986 µM and 0.629 µM; in [4], 1.41 µM and 1.22 µM; in [5], 1.28 µM and 0.281 µM; in [6] it was 0.644 µM. Further, the TGI in experiment [7] is 0.878 µM and 0.211 µM; in [8], 1.01 µM and 0.292 µM; in experiment [9], 1.52 µM and 1.81 µM; in experiment [10] it was 0.794 µM and 0.598 µM.

On to `COc1c(C)c(C/C=C(\C)CCCCO[Si](c2ccccc2)(c2ccccc2)C(C)(C)C)c(OC)c(OC)c1OC`, for which the TGI was 48.1 µM in experiment [1]; more than 46.4 µM in experiment [2]; 39.9 µM in experiment [3]; 35.6 µM in experiment [4]; more than 100 µM in experiment [5]; more than 100 µM in [6]. Besides, the TGI is more than 46.4 µM in experiment [7], more than 46.4 µM in experiment [8], more than 100 µM in experiment [9] and more than 46.4 µM in [10].

As to `COc1ccc(/C=C2\CCC(C)C3=C2NC(=S)NC3c2ccc(OC)c(OC)c2)cc1OC` (stereo not drawn), the TGI in experiment [1] is more than 31.6 µM; in [2], 39.3 µM; in experiment [3], 24.7 µM; in experiment [4], more than 90.2 µM; in experiment [5], more than 100 µM; in [6], more than 31.6 µM. Moreover, the TGI in experiment [7] was more than 31.6 µM; in experiment [8], more than 100 µM; in experiment [9], more than 31.6 µM; in experiment [10], more than 31.6 µM.

Turning to `COc1ccc(N2C(=O)C3c4[nH]c5ccccc5c4C4CCC(C(C)(C)C)CC4C3C2=O)c(C)c1` (stereo not drawn), the TGI in experiment [1], in experiment [2], in experiment [3], in experiment [4], in experiment [5] and in experiment [6] was more than 100 µM in each case. The TGI in experiment [7], in experiment [8], in experiment [9] and in experiment [10] was more than 100 µM throughout.

Regarding `N#CC1=C(N)N(c2ccccc2)C(c2ccco2)C1(C#N)C#N` (stereo not drawn), the TGI in [1] was more than 100 µM; in experiment [2] it was 51.1 µM; in experiment [3], 39.2 µM; in experiment [4], 51.8 µM; in experiment [5] it was 35.2 µM; in experiment [6], 60.5 µM. Moreover, the TGI is 39.2 µM in [7], 37.1 µM in experiment [8], 53.4 µM in [9] and 37.5 µM in experiment [10].

Turning to `O=[N+]([O-])C(=C1NCCN1)/C(Cl)=C(\Cl)Br`, the TGI was 30 µM in experiment [1]; 55.4 µM in [2]; 42.6 µM in experiment [3]; more than 100 µM in experiment [4]; 44.6 µM in [5]; more than 100 µM in [6]. Besides, the TGI in experiment [7] is 27.2 µM; in experiment [8] it was more than 59 µM; in experiment [9] it was 28.2 µM; in [10], 31.2 µM.

With `O=C(NNC(=O)c1ccccc1SSc1ccccc1C(=O)NNC(=O)c1ccccc1S)c1ccccc1S`, the TGI in experiment [1] was more than 100 µM; in [2], more than 75.3 µM; in experiment [3] it was more than 100 µM; in experiment [4], more than 100 µM; in experiment [5] it was 1.67 µM; in experiment [6] it was more than 74.9 µM. Moreover, the TGI in experiment [7] was more than 100 µM; in experiment [8], more than 95.2 µM; in experiment [9], 9.49 µM; in [10], more than 100 µM.

For the molecule `O=C(CCC(=O)c1ccc(Cl)cc1)NO`, the TGI in experiment [1], in experiment [2], in experiment [3], in [4], in experiment [5] and in experiment [6] was more than 100 µM throughout. Also, the TGI in [7], in experiment [8], in experiment [9] and in experiment [10] was more than 100 µM throughout.

Consider `C[C@@]12C[C@@H](c3ccccc3O1)N1CCCCSC1=N2`, for which the TGI in [1], in experiment [2], in experiment [3], in [4], in experiment [5] and in experiment [6] was more than 100 µM each time. Besides, the TGI in [7], in [8], in [9] and in experiment [10] was more than 100 µM throughout.

`C=C(Br)C(C)(Cl)CCC(Br)C(C)(C)Cl` (stereo not drawn): the TGI in experiment [1] is more than 100 µM; in [2] it was more than 100 µM; in experiment [3], 64.6 µM; in experiment [4] it was more than 100 µM; in experiment [5], more than 100 µM; in experiment [6], more than 100 µM. Also, the TGI in [7] is 94.7 µM; in experiment [8] it was more than 100 µM; in [9], 80.6 µM; in experiment [10], more than 100 µM.

`COC(=O)C1CCC(=O)N1C(c1ccccc1)c1ccc(OC)c(OC)c1` (stereo not drawn): the TGI in experiment [1], in experiment [2], in [3], in experiment [4], in experiment [5] and in experiment [6] was more than 100 µM in each case. In addition, the TGI in [7], in experiment [8], in experiment [9] and in [10] was more than 100 µM each time.

Take `COc1ccc(CNc2nc(NCc3ccc(OC)c(OC)c3)nc(NC3CCCCC3)n2)cc1`: the TGI in experiment [1] was more than 100 µM; in experiment [2], more than 100 µM; in experiment [3], 21 µM; in [4] it was more than 100 µM; in experiment [5] it was 5.74 µM; in [6], more than 100 µM. For the same molecule, the TGI in experiment [7], in experiment [8], in experiment [9] and in experiment [10] was more than 100 µM in each case.

With `COc1ccc2c(=O)c(O)c(-c3ccc(OC)c(OC)c3)oc2c1`, the TGI in experiment [1] is 13 µM; in [2], more than 100 µM; in experiment [3], more than 100 µM; in [4] it was more than 100 µM; in experiment [5], 46 µM; in experiment [6], more than 100 µM. Also, the TGI in experiment [7] is more than 100 µM; in experiment [8], more than 100 µM; in [9] it was 5.22 µM; in [10], more than 100 µM.

As to `NC(=O)C(c1ccccc1)N1OC2C(=O)N(c3ccccc3)C(=O)C2C1c1c2ccccc2c(Cl)c2ccccc12` (stereo not drawn), the TGI in [1], in [2], in experiment [3], in experiment [4], in [5] and in experiment [6] was more than 100 µM in each case. Also, the TGI in [7], in experiment [8], in [9] and in experiment [10] was more than 100 µM each time.

For the molecule `Oc1cccc2c(Cl)ccnc12`, the TGI in experiment [1] was more than 58.5 µM; in [2], 9.57 µM; in experiment [3], 32.6 µM; in experiment [4], more than 100 µM; in experiment [5], 2.44 µM; in experiment [6], more than 100 µM. Also, the TGI in [7] came to 29.3 µM; in [8], 33.6 µM; in experiment [9], 3.36 µM; in experiment [10], 5.96 µM.

Turning to `Nc1cccc2cc(Cl)cnc12`, the TGI in experiment [1], in [2], in experiment [3], in experiment [4], in experiment [5] and in experiment [6] was more than 100 µM throughout. Also, the TGI in [7], in experiment [8], in experiment [9] and in experiment [10] was more than 100 µM each time.

`C=C1c2nc3ccccc3n2C=C(c2ccccc2)N1c1ccc([N+](=O)[O-])cc1`: the TGI is 24 µM in experiment [1]; more than 70 µM in [2]; 48.4 µM in [3]; 43.4 µM in experiment [4]; 24.4 µM in experiment [5]; 68.2 µM in experiment [6]. The TGI is 59 µM in [7], more than 61.1 µM in [8], more than 88.1 µM in experiment [9] and 58.2 µM in experiment [10].

Take `COc1ccc(C2c3cc4c(cc3OC(NNS(=O)(=O)c3ccc(C)cc3)C2C)OCO4)cc1` (stereo not drawn): the TGI is more than 100 µM in experiment [1]; 69.7 µM in [2]; more than 100 µM in experiment [3]; more than 100 µM in experiment [4]; more than 100 µM in [5]; more than 100 µM in experiment [6]. The TGI in experiment [7] is more than 100 µM; in experiment [8] it was more than 100 µM; in [9] it was 84.7 µM; in experiment [10] it was more than 100 µM.

Consider `CCOC(=O)c1c2ccccc2n2c(N)c(C(N)=O)nnc12`, for which the TGI in [1] is more than 100 µM; in [2], more than 100 µM; in experiment [3], more than 100 µM; in [4], 55 µM; in experiment [5], more than 100 µM; in experiment [6], more than 100 µM. Further, the TGI in experiment [7], in [8], in experiment [9] and in experiment [10] was more than 100 µM in each case.

In the case of `O=C1/C(=C/c2ccc(O)cc2)CC/C1=C\c1ccc(O)cc1`, the TGI in experiment [1], in [2], in [3], in [4], in [5] and in [6] was more than 100 µM in each case. For the same molecule, the TGI in experiment [7] is more than 100 µM; in experiment [8], more than 100 µM; in experiment [9], 34.5 µM; in [10] it was more than 100 µM.
